This note sets out measurements from patent US20240043379A1, “PRODRUGS OF CYTOTOXIC ACTIVE AGENTS HAVING ENZYMATICALLY CLEAVABLE GROUPS” (Bayer Pharma Aktiengesellschaft, priority 2016, published 2024).

SMILES strings stand for the structures.

For data set [1], the system named is NCI-H292: human mucoepidermoid lung carcinoma cells. The data set can be described thus: MTT assay, cytotoxic effect on NCI-H292. Particulars: Table 2, metabolites and small-molecule reference examples. The class given is cell-based. On the procedure: (§1) The analysis of the cytotoxic effects of the ADCs was carried out with various cell lines:
(§2) The cells were cultivated by the standard method as stated by the American Tissue Culture Collection (ATCC) or the Leibniz-Institut DSMZ-Deutsche Sammlung von Mikroorganismen und Zellkulturen GmbH (DSMZ) for the cell lines in question.
(§3) The cells were then incubated in an incubator at 37° C., and 5% carbon dioxide. […] To this end, the MTT reagent was incubated with the cells for 4 h, followed by lysis of the cells overnight by addition of the detergent. […] The measured data were used to calculate the IC50 of the growth inhibition using the DRC (dose response curve). The proliferation of cells which were not treated with test substance but were otherwise identically treated was defined as the 100% figure.
On the technique in general: Formazan colour is commonly taken as a measure of viable cells.

Data set [2] deals with SK-HEP-1: human liver cell cancer line. In words: MTT assay, cytotoxic effect on SK-HEP-1. Particulars: Table 2, metabolites and small-molecule reference examples. The class given is cell-based. As for the experimental part:
as §1, §2, §3

Data set [3] has as its system KPL4: human breast cancer cell line. In words: MTT assay, cytotoxic effect on KPL4. To be noted: Table 2, metabolites and small-molecule reference examples. The data set is classed as cell-based. On the procedure:
as §1, §2, §3

A further data set concerns Caco-2 cells. In words: Caco-2 flux assay for cell permeability. The class given is in vitro ADME. Particulars: Caco-2, 2 hours incubation. A general note: Passage across Caco-2 layers is used to estimate intestinal permeability.
Data set [4] can be described thus: Caco-2 flux assay for cell permeability. Particulars: human; for Papp B→A at 2 h: Caco-2, 2 hours incubation; for efflux ratio at 2 h: ratio of Papp (B-A) to Papp (A-B), Caco-2. The data set is classed as in vitro ADME.

As usually defined, the IC50 is the concentration at which inhibition is half-maximal. For the compound `CC(C)(C)[C@H](c1cc(-c2cc(F)ccc2F)cn1Cc1ccccc1)N(CC[C@H](N)C(=O)N[C@H](CCC(=O)O)C(=O)O)C(=O)CO.O=C(O)C(F)(F)F` [Example M25, N-{(2S)-2-Amino-4-[{(1R)-1-[1-benzyl-4-(2,5-difluorophenyl)-1H-pyrrol-2-yl]-2,2-dimethylpropyl}(glycoloyl)amino]butanoyl}-L-glutamic acid/trifluoroacetic acid (1:1)], the IC50 in data set [1] (Homo sapiens, NCI-H292) came to 500 nM; in data set [2] (Homo sapiens, SK-HEP1), 500 nM; in data set [3] (Homo sapiens, KPL4) it was 500 nM. The “Papp (B-A)” value with Caco-2 cells was found to be 0.81 ×10⁻⁶ cm/s.

With `CC(C)(C)[C@H](c1cc(-c2cc(F)ccc2F)cn1Cc1ccccc1)N(CC[C@H](N)C(=O)NCCNC(=O)CNC(=O)C(CC(=O)O)SC[C@H](N)C(=O)O)C(=O)CO` (single isomer, unassigned) [Example M16], the half-maximal inhibitory concentration (IC50) is 143 nM in data set [1], 44 nM in data set [2] and 195 nM in data set [3].

The term Papp B→A denotes how fast a substance crosses the layer from the basolateral side. By efflux ratio is commonly meant a quotient of directional permeabilities that is used to spot active efflux. As to `CC(C)(C)[C@H](c1cc(-c2cc(F)ccc2F)cn1Cc1ccccc1)N(CC[C@H](N)C(=O)NCCNC(=O)CCCC(=O)NCCCC[C@H](N)C(=O)O)C(=O)CO.O=C(O)C(F)(F)F` [Example M29, N^6-(5-{[2-({(2S)-2-Amino-4-[{(1R)-1-[1-benzyl-4-(2,5-difluorophenyl)-1H-pyrrol-2-yl]-2,2-dimethylpropyl}(glycoloyl)amino]butanoyl}amino)ethyl]amino}-5-oxopentanoyl)-L-lysine/trifluoroacetic acid (1:1)], in data set [4], the Papp B→A at 2 h turned out to be 0.41 ×10⁻⁶ cm/s and the efflux ratio at 2 h turned out to be 5.3.

In the case of `CC(C)(C)[C@H](c1cc(-c2cc(F)ccc2F)cn1Cc1ccccc1)N(CC[C@H](N)C(=O)NCCNC(=O)CNC(=O)CC(SC[C@H](N)C(=O)O)C(=O)O)C(=O)CO.O=C(O)C(F)(F)F` (stereo partly drawn) [Example M26, 4-[(2-{[2-({(2S)-2-Amino-4-[{(1R)-1-[1-benzyl-4-(2,5-difluorophenyl)-1H-pyrrol-2-yl]-2,2-dimethylpropyl}(glycoloyl)amino]butanoyl}amino)ethyl]amino}-2-oxoethyl)amino]-2-{[(2R)-2-amino-2-carboxyethyl]sulphanyl}-4-oxobutanoic acid/trifluoroacetic acid (1:1)], the half-inhibitory concentration (IC50) in data set [1] turned out to be 63.8 nM; in data set [2], 19 nM. In addition, the “Papp (B-A)” value with Caco-2 cells turned out to be 1.3 ×10⁻⁶ cm/s.

For the compound `CC(C)(C)[C@H](c1cc(-c2cc(F)ccc2F)cn1Cc1ccccc1)N(CCCN)C(=O)CSC[C@H](NC(=O)CCOCCOCCOCCOCCNC(=O)CNC(=O)CC(SC[C@H](N)C(=O)O)C(=O)O)C(=O)O.O=C(O)C(F)(F)F.O=C(O)C(F)(F)F` (stereo partly drawn) [Example M20, (1R,4R,27R,33R)-1-Amino-32-(3-aminopropyl)-33-[1-benzyl-4-(2,5-difluorophenyl)-1H-pyrrol-2-yl]-34,34-dimethyl-6,9,25,31-tetraoxo-13,16,19,22-tetraoxa-3,29-dithia-7,10,26,32-tetraazapentatriacontane-1,4,27-tricarboxylic acid/trifluoroacetic acid (1:2)], in data set [4], the Papp B→A at 2 h stood at 0.09 ×10⁻⁶ cm/s.

On to `CC(C)(C)[C@H](c1cc(-c2cc(F)ccc2F)cn1Cc1ccccc1)N(CC[C@H](N)C(=O)NCCNC(=O)CNC(=O)CCCC(=O)NCCCC[C@H](N)C(=O)O)C(=O)CO.O=C(O)C(F)(F)F` [Example M28, N^6-{(3R,7S)-7-Amino-3-[1-benzyl-4-(2,5-difluorophenyl)-1H-pyrrol-2-yl]-4-glycoloyl-2,2-dimethyl-8,13,16,20-tetraoxo-4,9,12,15-tetraazaicosan-20-yl}-L-lysine/trifluoroacetic acid (1:1)], for which, in data set [4], the Papp B→A at 2 h was found to be 0.19 ×10⁻⁶ cm/s and the efflux ratio at 2 h is 1.
